Test results: US20240391928A1, “COMPOSITIONS FOR THE TREATMENT OF FOOD AND CHEMICAL ADDICTION AND METHODS OF MAKING AND USING SAME” (Duke University, priority 2021, published 2024)

Assays:
Assay type in all cases: cell-based
hGHSR1a^WT = hGHSR1a^WT (Homo sapiens, UniProt Q92847); assay: Gαq-dependent intracellular Ca2+ mobilization (iCa2+, miAeq); parameters: HEK293/T (transient); HEK293S Gαq knockout (transient, NanoBiT Gαq); settings: for Calcium signaling ECmax (%) / EC50: secondary assay of HTS hits; for Calcium signaling ECmax (%): normalized to L585; for EC50: read-out: Calcium signaling EC50; for inhibition of iCa2+ evoked by N8279, ghrelin or L585: 30 minute antagonist pretreatment
hGHSR1a^WT, sequence (Q92847 whole entry): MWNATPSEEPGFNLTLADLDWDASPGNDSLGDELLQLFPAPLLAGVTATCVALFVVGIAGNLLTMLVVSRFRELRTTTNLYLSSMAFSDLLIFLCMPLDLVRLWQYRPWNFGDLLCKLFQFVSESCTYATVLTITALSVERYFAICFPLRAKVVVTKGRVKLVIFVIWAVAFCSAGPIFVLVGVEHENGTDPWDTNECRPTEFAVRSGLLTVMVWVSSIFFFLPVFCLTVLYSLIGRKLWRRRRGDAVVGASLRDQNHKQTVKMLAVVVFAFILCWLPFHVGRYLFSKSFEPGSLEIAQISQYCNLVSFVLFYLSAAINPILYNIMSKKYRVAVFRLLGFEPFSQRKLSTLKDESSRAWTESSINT
Description: Gαq-Dependent Intracellular Ca^2+ Mobilization. […] Cells were split into and seeded into 10 cm dishes without antibiotic selection and grown to confluency overnight. The next morning, cells were serum starved in 10 mL of clear opti-MEM (supplemented with L-glutamine and HEPES; Gibco, Waltham, MA) for 3-4 hours in a 37° C. incubator with 5% CO2. Then, 25 μL of coelenterazine H (NanoLight Technology, Pinetop, AZ) was added to each 10 mL dish and incubated for another 1-2 hours. For antagonist assays, test compounds were either added directly to the media in 10 cm dishes, or cells were collected by gentle washing/trituration and plated onto white, clear-bottomed 96-well plates for 30 minutes—1 hour. Once the coelenterazine H (or antagonist) incubation was complete, cells were harvested from the 10 cm dish by gentle washing/trituration and collected in a 15 mL conical tube. Cell suspensions were then immediately subjected to assay by injecting cells onto a white, clear-bottomed 96-well plate containing 2× test compounds. Luminescence was read without delay and for 10 seconds per well. To control for cell number variability, cells were lysed in 2× lysis buffer (100 mM CaCl2+0.2% Triton-X) immediately following the assay. The max ligand-induced response (Ca^2+ mobilization: net-miAeq) over 10 seconds was normalized by dividing the ligand-induced luminescence counts (L-miAeq) by the ligand-induced luminescence counts (L-MiAeq) plus the luminescence measured upon cell lysis (Lysis-miAeq). Relative, lysis-normalized data were then normalized to the appropriate control/reference condition.
(§1) For experiments with WT and Gt KO HEK293/S cells, […] of hGHSR1a^WT, 10 μg of miAEQ, and 2.5 μg of pcDNA3.1 was transiently transfected into 10 cm dishes and incubated overnight. […] Twenty-four hours later, experiments proceeded in accordance with the procedures described above. To control for any possible kinetic differences in genetically modified cell lines or GHSR1a variants, the average ligand-induced response over 10 seconds was calculated, then normalized by dividing the L-miAeq by the L-miAeq plus the Lysis-miAeq and normalized to the appropriate control/reference condition.

[1] = system: human hGHSR1a-vasopressin receptor 2 tail chimera; assay: β-arr2^GFP translocation, compound screening (U2OS); settings: secondary assay of HTS hits; for Beta-arrestin translocation ECmax (%): normalized to L585; for EC50: read-out: Beta-arrestin translocation EC50
[2] = target: T1, hGHSR1a^WT in Gαq/11 KO HEK293/S cells (Homo sapiens, UniProt Q92847); assay: iCa2+ in Gαq/11 KO HEK293/S cells; settings: 10 μM ligand
T1 construct: expressed in transfected cells; SRF-RE reporter); HEK293/S Gαq/11 KO and parental WT (iCa2+)
T1 sequence (Q92847 whole entry): as above
Description: as §1

Calcium signaling ECmax (%) (hGHSR1a^WT) | EC50 (hGHSR1a^WT) [µM] | Beta-arrestin translocation ECmax (%) [1] [%] | EC50 [1] [µM] | agonist-induced iCa2+ in Gαq/11 KO cells [2] | activity of re-synthesized molecule in words (hGHSR1a^WT; re-synthesized material) | potency and efficacy relative to L585 in words (hGHSR1a^WT; screening sample) | inhibition of iCa2+ evoked by N8279, ghrelin or L585 (hGHSR1a^WT) | Compound
100 | 0.0146 | 100 | 0.024 | abolished | – | – | – | C[C@@H](O)CNC(C)(C)CC(=O)N[C@@H]1CCc2ccccc2N(Cc2ccc(-c3ccccc3-c3nn[nH]n3)cc2)C1=O [Example L626.585, reference compound]
8 | 0.00032 | 204 | 6.3 | – | – | – | – | Cc1ccc2oc3c(c(=O)c2c1)C(c1cccc(Cl)c1)N(CCCN1CCOCC1)C3=O (stereo not drawn) [MLS000103531]
71 | 20.4 | – | – | – | – | – | – | COc1cccc(C2c3c(oc4ccccc4c3=O)C(=O)N2CCCN2CCOCC2)c1 (stereo not drawn) [MLS000115599]
48 | 0.00681 | – | ~4690 | – | – | – | – | CC(C)CCOc1cccc(C2c3c(oc4ccccc4c3=O)C(=O)N2CCCN2CCOCC2)c1 (stereo not drawn) [MLS000115603]
51 | 0.00804 | 38 | 0.00298 | – | – | – | – | CCOc1ccc(C2c3c(oc4ccccc4c3=O)C(=O)N2CCCN2CCOCC2)cc1OCC (stereo not drawn) [MLS000115604]
– | – | 24 | 0.0312 | – | – | – | – | CCCOc1ccc(C2c3c(oc4cc(C)c(C)cc4c3=O)C(=O)N2CCCN2CCOCC2)cc1 (stereo not drawn) [MLS000115606]
126 | 2.38 | 0 | – | – | – | – | – | CCCOc1ccc(C2c3c(oc4cc(C)c(C)cc4c3=O)C(=O)N2CCCN(C)C)cc1OCC (stereo not drawn) [MLS000115621]
56 | 0.0176 | – | – | – | – | – | – | COc1cccc(C2c3c(oc4ccccc4c3=O)C(=O)N2CCCN2CCOCC2)c1 (stereo not drawn) [MLS002585710]
61 | 7.71 | 10 | 0.426 | – | – | – | – | COc1ccc(C2c3c(oc4ccc(F)cc4c3=O)C(=O)N2Cc2ccc3c(c2)OCO3)cc1 (stereo not drawn) [NCGC00101634]
115 | 32.4 | 49 | 2.4 | – | – | – | – | CCCOc1ccc(C2c3c(oc4ccccc4c3=O)C(=O)N2c2ccc(C)cn2)cc1OCC (stereo not drawn) [NCGC00101673]
40 | 3.35 | 39 | 0.558 | – | – | – | – | CSc1ccc(C2c3c(oc4ccccc4c3=O)C(=O)N2CCCN2CCOCC2)cc1 (stereo not drawn) [NCGC00101907]
– | ~3020 | 64 | 0.254 | – | – | – | – | C=CCOc1ccc(C2c3c(oc4ccc(C)cc4c3=O)C(=O)N2CCCN2CCOCC2)cc1 (stereo not drawn) [NCGC00101909]
44 | 0.00226 | – | – | – | – | – | – | Cc1ccc2oc3c(c(=O)c2c1)C(c1ccccc1F)N(CCCN1CCOCC1)C3=O (stereo not drawn) [NCGC00101911]
– | ~18000 | 153 | 1.55 | – | – | – | – | Cc1ccc2oc3c(c(=O)c2c1)C(c1cccc(O)c1)N(CCCN1CCOCC1)C3=O (stereo not drawn) [NCGC00101913]
– | ~19200 | 368 | 13.6 | – | – | – | – | COc1cc(C2c3c(oc4cc(C)c(C)cc4c3=O)C(=O)N2CCCN2CCOCC2)ccc1O (stereo not drawn) [NCGC00101915]
39 | 0.0043 | 20 | 0.00424 | – | – | – | – | CCCOc1cccc(C2c3c(oc4cc(C)c(C)cc4c3=O)C(=O)N2CCCN2CCOCC2)c1 (stereo not drawn) [NCGC00101917]
– | ~1520 | 99 | 1.74 | – | – | – | – | CCCOc1cccc(C2c3c(oc4ccc(F)cc4c3=O)C(=O)N2CCCN2CCOCC2)c1 (stereo not drawn) [NCGC00101919]
– | ~18500 | 9 | 0.0165 | – | – | – | – | CCOc1cc(C2c3c(oc4ccccc4c3=O)C(=O)N2Cc2ccc(OC)cc2)ccc1O (stereo not drawn) [NCGC00101920]

Calcium signaling ECmax (%) (hGHSR1a^WT) | EC50 (hGHSR1a^WT) [µM] | Beta-arrestin translocation ECmax (%) [1] [%] | EC50 [1] [µM] | agonist-induced iCa2+ in Gαq/11 KO cells [2] | activity of re-synthesized molecule in words (hGHSR1a^WT; re-synthesized material) | potency and efficacy relative to L585 in words (hGHSR1a^WT; screening sample) | inhibition of iCa2+ evoked by N8279, ghrelin or L585 (hGHSR1a^WT) | Compound
112 | 2.78 | 49 | 0.855 | – | – | – | – | Cc1ccc2oc3c(c(=O)c2c1)C(c1ccc(O)cc1)N(CCCN(C)C)C3=O (stereo not drawn) [NCGC00101937]
121 | 4.9 | 20 | 0.0116 | – | – | – | – | Cc1ccc2oc3c(c(=O)c2c1)C(c1ccccc1F)N(CCCN(C)C)C3=O (stereo not drawn) [NCGC00101939]
– | ~26900 | 83 | 0.095 | – | – | – | – | CCCCOc1ccc(C2c3c(oc4ccc(C)cc4c3=O)C(=O)N2CCCN(C)C)cc1OCC (stereo not drawn) [NCGC00101941]
57 | – | 12 | 0.528 | – | – | – | – | O=C1c2oc3ccccc3c(=O)c2C(c2ccccc2F)N1Cc1ccc2c(c1)OCO2 (stereo not drawn) [NCGC00101942]
63 | 1.2 | 7 | 2 | – | – | – | – | CCOc1cccc(C2c3c(oc4ccc(F)cc4c3=O)C(=O)N2CCOC)c1 (stereo not drawn) [NCGC00101945]
– | ~11200 | – | – | – | – | – | – | Cc1ccc2oc3c(c(=O)c2c1)C(c1ccc(O)cc1)N(Cc1ccc2c(c1)OCO2)C3=O (stereo not drawn) [NCGC00101948]
– | ~3010 | – | – | – | – | – | – | Cc1cc(C)c2c(=O)c3c(oc2c1)C(=O)N(Cc1ccco1)C3c1ccc(F)cc1 (stereo not drawn) [NCGC00116418]
75 | 5.62 | 163 | 3.05 | – | – | – | – | CC(C)c1ccc(C2c3c(oc4ccc(Cl)cc4c3=O)C(=O)N2CCCN2CCOCC2)cc1 (stereo not drawn) [NCGC00119774]
125 | 12 | 26 | 0.0499 | – | – | – | – | Cc1ccc2oc3c(c(=O)c2c1)C(c1ccc([N+](=O)[O-])cc1)N(CCCN1CCOCC1)C3=O (stereo not drawn) [NCGC00119776]
– | ~62000 | – | – | – | – | – | – | O=C1c2oc3ccc(F)cc3c(=O)c2C(c2cccc([N+](=O)[O-])c2)N1CCCN1CCOCC1 (stereo not drawn) [NCGC00119778]
– | ~296 | 11 | 0.0716 | – | – | – | – | COc1cccc(C2c3c(oc4ccc(C)cc4c3=O)C(=O)N2CCCN2CCOCC2)c1OC (stereo not drawn) [NCGC00136166]
129 | 13.1 | 24 | 2.33 | – | – | – | – | COc1ccc(OC)c(C2c3c(oc4ccc(C)cc4c3=O)C(=O)N2CCCN(C)C)c1 (stereo not drawn) [NCGC00136184]
68 | 0.938 | 19 | 0.00219 | – | – | – | – | CCOc1ccc(C2c3c(oc4ccc(C)cc4c3=O)C(=O)N2CCCN2CCOCC2)cc1 (stereo not drawn) [NCGC00141056]
97 | 1.29 | 142 | 2.03 | – | – | – | – | CCOc1ccc(C2c3c(oc4ccc(C)cc4c3=O)C(=O)N2CCCN(C)C)cc1 (stereo not drawn) [NCGC00141058]
105 | 0.714 | 196 | 5.33 | – | – | – | – | COc1ccc(C2c3c(oc4ccc(C)cc4c3=O)C(=O)N2CCCN2CCOCC2)cc1OC (stereo not drawn) [NCGC00141954]
105 | 0.332 | 107 | 2.31 | – | could not be confirmed | sub-μM potency and full efficacy | – | CCOc1ccc(C2c3c(oc4ccc(C)cc4c3=O)C(=O)N2CCCN(C)C)cc1OC (stereo not drawn) [NCGC00141956]
– | – | – | – | – | – | – | competitively inhibited | Cc1nc2ccc(Oc3ccc(F)cc3)cc2c(=O)n1C[C@H]1CCCN(C(C)C)C1 [YIL781, reference compound]
– | – | – | – | – | – | – | competitively inhibited | JMV2959 [reference compound]

Compound | Calcium signaling ECmax (%) (hGHSR1a^WT) | EC50 (hGHSR1a^WT) [µM] | Beta-arrestin translocation ECmax (%) [1] [%] | EC50 [1] [µM] | agonist-induced iCa2+ in Gαq/11 KO cells [2] | activity of re-synthesized molecule in words (hGHSR1a^WT; re-synthesized material) | potency and efficacy relative to L585 in words (hGHSR1a^WT; screening sample) | inhibition of iCa2+ evoked by N8279, ghrelin or L585 (hGHSR1a^WT)
CCCCOCCCn1c(N)c(C(=O)OC(C)COC)c2nc3ccccc3nc21 (stereo not drawn) [MLS000036469] | 50 | 0.00306 | – | 147 | – | – | – | –
